# Tests used:
# aldosterone synthase = molecular target: T1, aldosterone synthase (Homo sapiens, UniProt P19099); assay: Aldosterone cell secretion in NCI-H295R cells (Ang II stimulated, SPA); format: cell-based
# T1 construct: host or cells: NCI-H295R
# T1 sequence (P19099 25-503): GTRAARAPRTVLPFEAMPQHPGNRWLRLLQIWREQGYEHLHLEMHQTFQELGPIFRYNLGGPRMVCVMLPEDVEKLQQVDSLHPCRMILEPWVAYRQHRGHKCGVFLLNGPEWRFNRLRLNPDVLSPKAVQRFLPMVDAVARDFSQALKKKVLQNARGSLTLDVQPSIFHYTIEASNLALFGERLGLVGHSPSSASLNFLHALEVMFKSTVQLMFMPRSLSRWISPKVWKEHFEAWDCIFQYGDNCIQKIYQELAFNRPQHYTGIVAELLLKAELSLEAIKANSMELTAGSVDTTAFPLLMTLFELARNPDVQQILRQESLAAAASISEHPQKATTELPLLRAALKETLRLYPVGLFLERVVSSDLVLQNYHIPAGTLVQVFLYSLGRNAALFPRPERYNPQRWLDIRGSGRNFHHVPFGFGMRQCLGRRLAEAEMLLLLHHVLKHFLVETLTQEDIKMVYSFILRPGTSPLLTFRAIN
# Source text: In particular, the aldosterone synthase inhibitory activities in vitro can be determined by the following assay.
# Human adrenocortical carcinoma NCI-H295R cell line was obtained from American Type Culture Collection (Manassas, Va.). Insulin/transferrin/selenium (ITS)-A supplement (100×), DMEM/F-12, antibiotic/antimycotic (100×), and fetal bovine serum (FBS) were purchased from Invitrogen (Carlsbad, Calif.). Anti-mouse PVT scintillation proximity assay (SPA) beads and NBS 96-well plates were obtained from GE Health Sciences (Piscataway, N.J.) and Corning (Acton, Mass.), respectively. Solid black 96-well flat bottom plates were purchased from Costar (Corning, N.Y.). Aldosterone and angiotensin (Ang II) were purchased from Sigma (St. Louis, Mo.). D[1,2,6,7-^3H(N)]aldosterone was acquired from PerkinElmer (Boston, Mass.). Nu-serum was a product of BD Biosciences (Franklin Lakes, N.J.).
# For in vitro measurement of aldosterone activity, human adrenocortical carcinoma NCI-H295R cells are seeded in NBS 96-well plates at a density of 25,000 cells/well in 100 μl of a growth medium containing DMEM/F12 supplemented with 10% FCS, 2.5% Nu-serum, 1 μg ITS/ml, and 1× antibiotic/antimycotic. The medium is changed after culturing for 3 days at 37° C. under an atmosphere of 5% CO2/95% air. On the following day, cells are rinsed with 100 μl of phosphate-buffered saline (PBS) and incubated with 100 μl of treatment medium containing 1 μM Ang II and a compound at different concentrations in quadruplicate wells at 37° C. for 24 hr. At the end of incubation, 50 μl of medium is withdrawn from each well for measurement of aldosterone production by an SPA using mouse anti-aldosterone monoclonal antibodies.
# Measurement of aldosterone activity can also be performed using a 96-well plate format. Each test sample is incubated with 0.02 μCi of D-[1,2,6,7-^3H(N)]aldosterone and 0.3 μg of anti-aldosterone antibody in PBS containing 0.1% Triton X-100, 0.1% bovine serum albumin, and 12% glycerol in a total volume of 200 μl at room temperature for 1 hr. Anti-mouse PVT SPA beads (50 μl) are then added to each well and incubated overnight at room temperature prior to counting in a Microbeta plate counter. The amount of aldosterone in each sample is calculated by comparing with a standard curve generated using known quantities of the hormone.
# (§1) Inhibition of the release of certain steroids can be used as a measure of the respective enzyme inhibition by the added test compounds. The dose-dependent inhibition of enzymic activity by a compound is calculated by means of an inhibition plot which is characterized by an IC50.
# The IC50 values for active test compounds are ascertained by a simple linear regression analysis in order to construct inhibition plots without data weighting. The inhibition plot is calculated by fitting a 4-parameter logistic function to the raw data points using the least squares method. The equation of the 4-parameter logistic function is calculated as follows: Y=(d−a)/((1+(x/c)b))+a, where: a=minimum data level, b gradient, I c=ICED, d=maximum data level, x=inhibitor concentration.
# The inhibition activity of aldosterone production can also be expressed in percentage inhibition (% inhibition) at a given concentration (e.g. % inhibition at 1 μM), which is the aldosterone level when the cell is treated with the given concentration of a compound of this invention (e.g. concentration of 1 μM) versus the aldosterone excretion when cell is free of the compound of the invention: % inhibition aldosterone production=[(Y′−X′)/Y′]×100 wherein X′ is the level of aldosterone when the cell is treated with a compound of Formula I and Y′ is the level of aldosterone when the cell is free of compound of Formula I.
# CYP11B1 = molecular target: T2, CYP11B1 (Homo sapiens, UniProt P15538); assay: Cortisol cell secretion in NCI-H295R cells (CYP11B1 activity); format: cell-based; conditions: for inhibition at 1 µM: read-out: Cortisol cell secretion (% Inhib. @ 1 μM)
# T2 construct: the NCI-H295R cells have Cyp11 B1 (steroid 11 β-hydroxylase); host or cells: NCI-H295R
# T2 sequence (P15538 25-503): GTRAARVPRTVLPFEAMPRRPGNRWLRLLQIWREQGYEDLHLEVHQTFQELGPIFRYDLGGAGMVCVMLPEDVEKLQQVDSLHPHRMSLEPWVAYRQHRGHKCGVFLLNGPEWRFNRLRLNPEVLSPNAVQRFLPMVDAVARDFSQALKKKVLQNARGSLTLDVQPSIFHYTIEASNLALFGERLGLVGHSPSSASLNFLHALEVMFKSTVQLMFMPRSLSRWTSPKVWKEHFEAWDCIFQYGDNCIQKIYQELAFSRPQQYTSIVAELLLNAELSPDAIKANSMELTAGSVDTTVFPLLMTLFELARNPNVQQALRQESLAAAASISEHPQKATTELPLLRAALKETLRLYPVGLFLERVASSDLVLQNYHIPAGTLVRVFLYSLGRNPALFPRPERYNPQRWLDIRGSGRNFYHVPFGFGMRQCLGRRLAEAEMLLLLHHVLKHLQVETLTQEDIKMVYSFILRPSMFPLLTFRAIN
# Source text: The in vitro inhibitory activities for CYP11B1 can be determined by the following assay.
# The cell line NCI-11295R was originally isolated from an adrenocortical carcinoma and has been characterized in the literature through the stimulable secretion of steroid hormones and the presence of the enzymes essential for steroidogenesis. Thus, the NCI-H295R cells have Cyp11 B1 (steroid 11 β-hydroxylase). The cells show the physiological property of zonally undifferentiated human foetal adrenocortical cells which, however, have the capacity to produce the steroid hormones which are formed in the three, phenotypically distinguishable zones in the adult adrenal cortex.
# The NCI-H295R cells (American Type Culture Collection, ATCC, Rockville, Md., USA) are grown in Dulbeoco's Modified Eagle' Ham F-12 Medium (DME/F12), which has been supplemented with Ulroser SF Serum (Soprachem, Cergy-Saint-Christophe, France), insulin, transferrin, selenite (I-T-S, Becton Dickinson Biosciences, Franklin lakes, N.J., USA) and antibiotics in 75 cm^2 cell culture vessels at 37° C. and in a 95% air-5% carbon dioxide atmosphere. The cells are subsequently transferred for colony formation into a 24-well incubation vessel. They are cultivated there in DME/F12 medium, which is now supplemented with 0.1% bovine serum instead of Ultroser SF for 24 hours. The experiment is initiated by cultivating the cells in DME/F12 medium which is supplemented with 0.1% bovine serum albumin and test compound, in the presence or absence of cell stimulants, for 72 hours. The test substance is added in a concentration range from 0.2 nanomolar to 20 millimolar. Cell stimulants which can be used are angiotensin II ([…] or 100 nanomolar), potassium ions (16 millimolar), forskolin (10 micromolar) or a combination of two stimulants.
# The excretion of aldosterone, cortisol, corticosterone and estradiol/estrone into the culture medium can be detected and quantified by commercially available, specific monoclonal antibodies in radioimmunoassays in accordance with the manufacturer's instructions.
# as §1
# The inhibition activity of cortisol production (CYP11B1 activity) can also be expressed in percentage inhibition (% inhibition) at a given concentration (e.g. % inhibition at 1 μM), which is the cortisol level when cell is treated with the given concentration of a compound of the invention (e.g. concentration of 1 versus the cortisol excretion when cell is free of the compound of the invention: % inhibition cortisol production=[(Y′−X′)/Y′]×100 wherein X′ is the level of cortisol when the cell is treated with a compound of Formula I; and Y′ is the level of cortisol when the cell is free of compound of Formula
Compound,IC50 (aldosterone synthase),inhibition at 1 µM (CYP11B1),Cortisol cell secretion (% Inhib. @ 1 μM) (CYP11B1)
"CN1C(=O)Cc2cc(-c3cncc(F)c3)ccc21 [Example 2, 5-(5-Fluoro-pyridin-3-yl)-1-methyl-1,3-dihydro-indol-2-one]",5 nM,,83%
CCOc1cncc(-c2ccc3c(c2)CC(=O)N3C)c1 [Example 13],20 nM,83.5%,
"CC(C)C(=O)Nc1cncc(-c2ccc3c(c2)CC(=O)N3C)c1 [Example 9, N-[5-(1-Methyl-2-oxo-2,3-dihydro-1H-indol-5-yl)-pyridin-3-yl]-isobutyramide]",15 nM,,89%
"CN1C(=O)Cc2cc(-c3cncc(C(N)=O)c3)ccc21 [Example 5, 5-(1-Methyl-2-oxo-2,3-dihydro-1H-indol-5-yl)-nicotinamide]",58 nM,,78%
COc1c(-c2cccnc2)ccc2c1CC(=O)N2C [Example 8],36 nM,84%,
Cn1c(=O)oc2cc(-c3cccnc3)ccc21 [Example 19],472 nM,,
"1-Methyl-5-(5-methyl-pyridin-3-yl)-1,3-dihydro-indol-2-one [Example 1]",91.5 nM,,29.5%
"5-(4-Ethyl-pyridin-3-yl)-1-methyl-1,3-dihydro-indol-2-one [Example 6]",11 nM,,83%
"1-Isopropyl-3-[5-(1-methyl-2-oxo-2,3-dihydro-1H-indol-5-yl)-pyridin-3-ylmethyl]-urea [Example 15]",172 nM,,82%

# Results, then the compound that gave them:
IC50 (aldosterone synthase),inhibition at 1 µM (CYP11B1),Cortisol cell secretion (% Inhib. @ 1 μM) (CYP11B1),Compound
10 nM,85.5%,,CN1C(=O)Cc2c1ccc(-c1cccnc1)c2Cl [Example 4]
2 nM,79%,,CN1C(=O)Cc2cc(-c3cncc(C4CC4)c3)ccc21 [Example 12]
4 nM,93%,,Cc1c(-c2cncc(Br)c2)ccc2c1CC(=O)N2C [Example 10]
18 nM,,51%,"5-(5-Ethoxy-pyridin-3-yl)-1-methyl-1,3-dihydro-indol-2-one [#13]"
18 nM,60%,,CN1C(=O)Cc2cc(-c3cncc(-c4cccnc4)c3)ccc21 [Example 14]
408 nM,,,Cn1c(=O)n(C)c2cc(-c3cccnc3)ccc21 [Example 18]
14 nM,,87%,"5-[5-(1-Hydroxy-1-methyl-ethyl)-pyridin-3-yl]-1-methyl-1,3-dihydro-indol-2-one [Example 16]"

# Source: patent publication US8778972B2, “5-pyridin-3-yl-1, 3-dihydro-indol-2-on derivatives and their use as modulators of aldosterone synthase and/or CYP11B1” (Novartis AG, priority 2009, dated 2014)
